The text below walks through data of ChEMBL document CHEMBL1201862, “PubChem BioAssay data set” (2004).

The structures appear in SMILES notation. Calls of active or inactive are those of the source.

Assay [1] in a line: Trypanosoma cruzi growth suppression in host cells – NIH3T3 host cells, beta-gal luminescence, confirmation (AID 2044).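 Also: intracellular parasites grown in NIH/3T3 mouse fibroblasts as host cells; luminescent beta-galactosidase reporter signal from transgenic T. cruzi replicating inside host cells; inhibitors lower the luminescence signal.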 Type of assay: functional, cell-based.
Assay [2] is described as follows: NIH3T3 cell viability loss – ATP luminescence, mouse fibroblasts, counter-screen, dose response (AID 2010).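 Also: cells exposed to compound for about 90 hours before reading.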 Type of assay: functional, cell-based.
The target in assay [3] is T1, Sentrin-specific protease 8 (Homo sapiens, UniProt Q96LD8).
T1 sequence (Q96LD8 whole entry): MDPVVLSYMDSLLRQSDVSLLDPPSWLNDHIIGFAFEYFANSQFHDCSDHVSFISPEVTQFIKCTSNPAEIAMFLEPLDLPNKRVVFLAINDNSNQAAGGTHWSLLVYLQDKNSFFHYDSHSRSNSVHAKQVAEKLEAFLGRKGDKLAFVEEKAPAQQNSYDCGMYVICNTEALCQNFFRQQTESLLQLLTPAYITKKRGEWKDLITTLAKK
Type of assay: functional.

The target in assay [4] is T1, Sentrin-specific protease 8. Type of assay: functional. The source holds these as a separate data set.
Assay [5] in a line: cells.
The test system of assay [6] is HT-1080. In words: HT1080 cell viability loss – fluorescence readout (AID 620). To be noted: Homo sapiens. In kind it is functional, cell-based.
Assay [7] deals with T2, Estrogen receptor beta (Homo sapiens, UniProt Q92731).
The target of assay [8] is T2, Estrogen receptor beta. In words: blockers of SRC-3 recruitment to ERβ – biochemical, ELISA, streptavidin-HRP readout, orthogonal assay, confirmation (AID 1060).
A short description of assay [9]: viability of uninfected HEp-2 cells – cell-based, HTS, cytotoxicity control for RSV inhibitor project, dose response (AID 2410). Type of assay: functional. To be noted: human respiratory syncytial virus.
Assay [10] has as its target E3 ubiquitin-protein ligase Mdm2 (Homo sapiens, UniProt Q00987). In words: MDM2-luc reporter signal enhancers, multi-concentration potency testing, MDM2 ubiquitin-protein ligase inhibitor program, whole-cell format, luminescence detection, 384-well microplate (AID 1394).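 Also: MDM2 E3 inhibitors raise luminescence so EC50 is for signal enhancement.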 In kind it is functional.
The nature of assay [11]: decrease of insulin promoter-GFP reporter – imaging, high-content screening, mouse beta cells (AID 1628). Type of assay: functional. To be noted: MIN6.
The nature of assay [12]: MIN6 cell viability loss – mouse insulinoma, cytotoxicity control, dose response (AID 2122).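 Also: confirmatory high-throughput counterscreen run to flag cytotoxic compounds.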 Type of assay: functional.
The nature of assay [13]: Luminescence Cell-Based Dose Retest to Confirm Inhibitors of Cancer Stem Cells. [Related pubchem assays (depositor defined):AID2717, AID2721]. In kind it is functional. To be noted: Homo sapiens.
Assay [14] has as its system Vero. In words: cells. In kind it is functional. The settings on record: Chlorocebus sabaeus.
A short description of assay [15]: cells. Type of assay: functional, cell-based.
In assay [16] the target is T3, Nuclear receptor subfamily 0 group B member 1 (Homo sapiens, UniProt P51843).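 Also: HEK293T cells transfected with SF-1 and DAX-1 plus StAR promoter luciferase reporter.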
T3 sequence (P51843 whole entry): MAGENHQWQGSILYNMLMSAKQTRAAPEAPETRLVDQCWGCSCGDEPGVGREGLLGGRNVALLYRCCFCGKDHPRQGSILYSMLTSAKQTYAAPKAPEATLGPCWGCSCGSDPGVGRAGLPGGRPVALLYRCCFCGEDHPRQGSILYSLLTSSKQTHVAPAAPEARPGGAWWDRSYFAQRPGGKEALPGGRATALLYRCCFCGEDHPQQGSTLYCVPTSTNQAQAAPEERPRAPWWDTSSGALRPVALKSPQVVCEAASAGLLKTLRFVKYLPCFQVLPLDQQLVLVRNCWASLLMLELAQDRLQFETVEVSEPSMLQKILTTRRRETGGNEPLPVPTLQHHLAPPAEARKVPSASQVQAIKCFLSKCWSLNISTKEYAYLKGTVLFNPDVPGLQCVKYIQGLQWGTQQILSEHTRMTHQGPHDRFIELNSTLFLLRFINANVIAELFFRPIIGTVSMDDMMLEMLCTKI
In kind it is functional, cell-based.

For assay [17], the target named is Nonstructural protein 1 (Influenza A virus, UniProt Q194T2). Type of assay: functional, Influenza A virus (A/California/07/2009(H1N1)).
Assay [18] addresses T4, Leucine aminopeptidase (Plasmodium falciparum 3D7, UniProt Q8IL11).
T4 sequence (Q8IL11 whole entry): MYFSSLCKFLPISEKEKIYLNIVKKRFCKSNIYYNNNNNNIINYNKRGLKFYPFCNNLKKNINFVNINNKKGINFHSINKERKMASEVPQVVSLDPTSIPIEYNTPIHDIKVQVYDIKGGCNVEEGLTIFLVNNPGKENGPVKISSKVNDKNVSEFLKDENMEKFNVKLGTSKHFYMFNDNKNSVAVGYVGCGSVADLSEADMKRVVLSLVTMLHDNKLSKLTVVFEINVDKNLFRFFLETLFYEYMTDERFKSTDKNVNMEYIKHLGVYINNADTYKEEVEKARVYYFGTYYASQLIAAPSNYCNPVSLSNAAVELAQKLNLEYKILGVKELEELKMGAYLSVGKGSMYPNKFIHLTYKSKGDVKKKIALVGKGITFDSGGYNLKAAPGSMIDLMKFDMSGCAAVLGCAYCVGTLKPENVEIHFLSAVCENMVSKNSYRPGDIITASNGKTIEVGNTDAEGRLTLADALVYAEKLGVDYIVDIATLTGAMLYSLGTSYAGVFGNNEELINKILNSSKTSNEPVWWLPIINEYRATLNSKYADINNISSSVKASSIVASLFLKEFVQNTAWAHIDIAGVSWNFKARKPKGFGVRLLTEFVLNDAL
The experiment in a line: P. falciparum M17LAP inhibitors, primary screen, biochemical, fluorogenic H-Leu-NHMec substrate, 1536-well (AID 1619). In kind it is functional.

Assay [19] concerns the target T5, Aspartyl aminopeptidase (Plasmodium falciparum 3D7, UniProt Q8I2J3).
T5 sequence (Q8I2J3 whole entry): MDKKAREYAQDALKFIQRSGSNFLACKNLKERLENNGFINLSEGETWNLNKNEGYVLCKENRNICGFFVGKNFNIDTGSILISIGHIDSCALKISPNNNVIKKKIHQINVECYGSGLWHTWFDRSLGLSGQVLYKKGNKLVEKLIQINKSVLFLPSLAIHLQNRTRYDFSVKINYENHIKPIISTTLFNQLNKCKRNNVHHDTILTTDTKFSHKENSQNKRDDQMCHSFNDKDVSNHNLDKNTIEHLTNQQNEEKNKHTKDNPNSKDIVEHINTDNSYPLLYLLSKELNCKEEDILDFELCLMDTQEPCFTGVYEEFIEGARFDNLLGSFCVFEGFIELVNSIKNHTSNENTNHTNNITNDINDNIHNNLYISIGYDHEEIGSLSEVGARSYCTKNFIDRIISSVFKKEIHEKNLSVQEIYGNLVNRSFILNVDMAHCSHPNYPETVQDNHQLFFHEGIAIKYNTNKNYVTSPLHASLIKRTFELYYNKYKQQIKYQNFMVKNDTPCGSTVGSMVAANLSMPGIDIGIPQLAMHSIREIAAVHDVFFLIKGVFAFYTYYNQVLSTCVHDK
In words: Counterscreen for inhibitors of M1 and M17 aminopeptidases: QFRET-based biochemical high throughput dose response assay for inhibitors of the Plasmodium falciparum M18 Aspartyl Aminopeptidase (PFM18AAP). [Related PubChem assays: 1619 (Screening assay (M17LAP inhibitors).), 1445 (Screening assay (M1AAP inhibitors).)].

For assay [20], the target named is Procathepsin L (Homo sapiens, UniProt P07711). In words: CTSL1 protease inhibition – biochemical, QFRET, 1536-well, counter-screen for M1/M17 aminopeptidase inhibitor project, dose response (AID 2214).
Assay [21] concerns the target T6, Replicative DNA helicase DnaB (Mycobacterium tuberculosis, UniProt P9WMR3).
T6 sequence (P9WMR3 whole entry): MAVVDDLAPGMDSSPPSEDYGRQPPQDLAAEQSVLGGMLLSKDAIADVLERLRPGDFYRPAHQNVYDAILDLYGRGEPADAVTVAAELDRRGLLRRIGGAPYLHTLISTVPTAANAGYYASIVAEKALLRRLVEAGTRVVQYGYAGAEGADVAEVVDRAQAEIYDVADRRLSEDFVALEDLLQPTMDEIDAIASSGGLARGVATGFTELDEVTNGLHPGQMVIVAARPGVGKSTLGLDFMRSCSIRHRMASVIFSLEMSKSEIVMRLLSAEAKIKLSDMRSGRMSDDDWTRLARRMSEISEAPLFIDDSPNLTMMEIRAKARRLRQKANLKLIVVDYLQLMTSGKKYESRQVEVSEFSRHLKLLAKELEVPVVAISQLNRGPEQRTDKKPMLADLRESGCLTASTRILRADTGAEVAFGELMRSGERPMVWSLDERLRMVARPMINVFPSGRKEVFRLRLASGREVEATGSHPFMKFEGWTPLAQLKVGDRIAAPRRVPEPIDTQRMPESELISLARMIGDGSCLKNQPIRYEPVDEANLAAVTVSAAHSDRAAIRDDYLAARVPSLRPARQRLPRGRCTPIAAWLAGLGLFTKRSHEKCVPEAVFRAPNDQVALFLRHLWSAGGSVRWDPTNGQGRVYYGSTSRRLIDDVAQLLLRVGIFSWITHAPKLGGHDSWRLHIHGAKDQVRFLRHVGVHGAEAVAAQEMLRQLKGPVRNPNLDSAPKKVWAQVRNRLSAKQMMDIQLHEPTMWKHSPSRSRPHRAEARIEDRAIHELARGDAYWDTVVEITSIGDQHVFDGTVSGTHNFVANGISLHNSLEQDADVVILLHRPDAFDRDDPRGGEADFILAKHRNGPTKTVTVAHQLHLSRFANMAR
In words: DnaB intein splicing inhibitors, dose response, biochemical, cell-free fluorescence (AID 449749). Type of assay: functional.

Assay [22] concerns the target T7, Protein RecA (Mycobacterium tuberculosis, UniProt P9WHJ3).
T7 sequence (P9WHJ3 whole entry): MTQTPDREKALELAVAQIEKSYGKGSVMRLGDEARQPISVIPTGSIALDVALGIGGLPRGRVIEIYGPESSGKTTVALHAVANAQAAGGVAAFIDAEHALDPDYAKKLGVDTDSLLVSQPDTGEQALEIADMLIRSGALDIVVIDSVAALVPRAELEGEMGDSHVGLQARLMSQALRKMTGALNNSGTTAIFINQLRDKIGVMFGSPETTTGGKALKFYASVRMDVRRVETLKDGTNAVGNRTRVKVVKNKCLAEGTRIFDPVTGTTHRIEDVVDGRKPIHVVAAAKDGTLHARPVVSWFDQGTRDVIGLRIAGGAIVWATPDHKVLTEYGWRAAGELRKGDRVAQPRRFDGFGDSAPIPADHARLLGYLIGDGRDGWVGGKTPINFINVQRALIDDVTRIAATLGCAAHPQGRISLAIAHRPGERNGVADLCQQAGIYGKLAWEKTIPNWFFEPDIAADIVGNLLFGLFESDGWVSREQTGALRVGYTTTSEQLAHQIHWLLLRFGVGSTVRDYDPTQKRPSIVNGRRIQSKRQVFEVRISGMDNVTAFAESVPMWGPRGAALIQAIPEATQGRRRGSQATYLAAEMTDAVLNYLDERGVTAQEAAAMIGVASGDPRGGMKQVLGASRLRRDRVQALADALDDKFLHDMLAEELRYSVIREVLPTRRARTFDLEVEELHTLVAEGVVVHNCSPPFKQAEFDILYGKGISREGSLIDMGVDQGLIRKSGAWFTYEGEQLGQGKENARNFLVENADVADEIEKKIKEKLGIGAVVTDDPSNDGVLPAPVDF
The experiment in a line: Fluorescence Cell-Free Homogeneous Dose Retest to Identify Inhibitors of RecA-Intein Splicing Activity. [Related pubchem assays (depositor defined):AID2097, AID2223, AID489010, AID492950]. In kind it is functional.

T2 sequence (Q92731 whole entry): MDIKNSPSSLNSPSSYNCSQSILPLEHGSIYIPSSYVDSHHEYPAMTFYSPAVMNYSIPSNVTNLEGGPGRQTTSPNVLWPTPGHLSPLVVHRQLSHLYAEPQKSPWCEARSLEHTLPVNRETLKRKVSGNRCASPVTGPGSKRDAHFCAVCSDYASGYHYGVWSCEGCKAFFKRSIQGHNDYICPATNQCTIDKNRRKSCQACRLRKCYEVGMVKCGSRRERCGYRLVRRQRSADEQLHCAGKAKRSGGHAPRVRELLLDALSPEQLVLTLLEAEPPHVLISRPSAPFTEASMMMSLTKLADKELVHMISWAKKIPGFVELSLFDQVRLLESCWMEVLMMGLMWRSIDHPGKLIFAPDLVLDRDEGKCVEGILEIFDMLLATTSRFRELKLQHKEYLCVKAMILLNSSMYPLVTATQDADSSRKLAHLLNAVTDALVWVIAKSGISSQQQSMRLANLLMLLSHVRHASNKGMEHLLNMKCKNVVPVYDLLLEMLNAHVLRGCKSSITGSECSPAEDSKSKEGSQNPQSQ
Sequence of Procathepsin L (P07711 whole entry): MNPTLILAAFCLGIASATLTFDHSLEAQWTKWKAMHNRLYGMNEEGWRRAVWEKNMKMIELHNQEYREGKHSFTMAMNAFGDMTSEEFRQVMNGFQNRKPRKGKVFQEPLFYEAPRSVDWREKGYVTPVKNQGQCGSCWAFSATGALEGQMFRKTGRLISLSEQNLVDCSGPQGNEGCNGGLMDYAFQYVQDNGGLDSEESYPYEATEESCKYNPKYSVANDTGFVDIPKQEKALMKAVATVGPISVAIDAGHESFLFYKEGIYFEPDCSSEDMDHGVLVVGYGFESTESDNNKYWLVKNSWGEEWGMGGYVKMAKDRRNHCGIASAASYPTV
Sequence of Nonstructural protein 1 (Q194T2 whole entry): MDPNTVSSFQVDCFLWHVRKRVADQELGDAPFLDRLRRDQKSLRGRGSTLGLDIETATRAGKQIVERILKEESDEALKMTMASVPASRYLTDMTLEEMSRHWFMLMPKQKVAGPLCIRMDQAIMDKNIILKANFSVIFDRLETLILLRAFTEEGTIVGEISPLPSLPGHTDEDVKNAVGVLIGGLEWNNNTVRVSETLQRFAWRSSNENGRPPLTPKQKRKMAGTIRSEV
Sequence of E3 ubiquitin-protein ligase Mdm2 (Q00987 whole entry): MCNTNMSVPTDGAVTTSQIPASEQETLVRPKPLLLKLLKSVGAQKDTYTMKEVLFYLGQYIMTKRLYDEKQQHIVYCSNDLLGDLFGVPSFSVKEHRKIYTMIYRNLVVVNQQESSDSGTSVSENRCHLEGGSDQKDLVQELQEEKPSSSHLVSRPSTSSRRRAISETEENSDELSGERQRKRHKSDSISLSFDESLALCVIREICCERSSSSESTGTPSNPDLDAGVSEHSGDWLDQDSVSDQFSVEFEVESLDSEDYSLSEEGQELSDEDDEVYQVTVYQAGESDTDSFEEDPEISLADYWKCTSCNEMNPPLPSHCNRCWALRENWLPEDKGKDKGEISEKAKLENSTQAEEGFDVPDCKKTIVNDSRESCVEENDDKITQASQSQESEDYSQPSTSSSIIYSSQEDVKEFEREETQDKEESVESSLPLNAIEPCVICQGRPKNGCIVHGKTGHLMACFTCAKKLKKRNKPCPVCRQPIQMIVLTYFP

Turning to `CN(C)CCN(C(=O)c1ccc(N2C(=O)CCC2=O)cc1)c1nc2cc3c(cc2s1)OCO3`, the EC50 in assay [1] was < 0.1 µM (active); in [2] it was > 60 µM (not active); in assay [5], 0.102 µM (active). Besides, the IC50 in assay [3] was 33.5 µM (active); in assay [4], 24.4 µM (active).
Consider `Cc1ccc(NC2=Nc3ccccc3CC2)cc1`, for which the EC50 in [6] is listed as > 50 µM (not active).
Regarding `COCc1cc(O)n2c(-c3ccc(C)cc3)nnc2n1`, the IC50 in assay [7] is 17.5 µM (active); in [8], 1.03 µM (not active).
`COc1ccc(/C=C/C(=O)Nc2ccc(C34CC5CC(CC(O)(C5)C3)C4)cc2)cc1OC`: the CC50 in assay [9] is 1.48 µM (active); in [14], 20.9 µM (active). Further, the EC50 in assay [10] is 3.12 µM (not active). Further, the IC50 is 2.17 µM (active) in [11], 5.21 µM (active) in assay [12], > 67.5 µM (inactive) in assay [15] and > 0.834 µM (active) in assay [16]. In addition, the AC50 in assay [13] was 0.647 µM (active).
As for `CN(C)c1ccc(/N=C/c2ccco2)cc1`, the IC50 in assay [11] was 3.55 µM (active); in assay [12], 3.61 µM (active); in assay [7], 18.5 µM (active); in [8], 0.048 µM (not active); in assay [17], 16.6 µM (active).
In the case of `Cc1ccc(Nc2nnc(SC3CCOC3=O)s2)c(C)c1` (centres undefined), the IC50 in assay [18] was 2.57 µM (active); in assay [19], > 73.5 µM (not active); in [20] it was > 59.6 µM (not active).
With `O=c1cc(-c2ccc(F)cc2)[nH][nH]1`, the IC50 in [18] was 1.13 µM (active); in [19], > 73.5 µM (not active); in [20], > 59.6 µM (not active). The AC50 in [21] was 1.79 µM (active). Also, the EC50 in assay [22] is 0.548 µM (active).
